Consider one compound from US10765654B2, “Methods and compounds for treating cancer” (University of Vermont and State Agricultural College, priority 2011, dated 2020).

Series [1] relates to OG33 oligodendroglioma stem cells. As to the kind of experiment: Cell cycle profile by propidium iodide staining and flow cytometry. In kind it is cell-based, human. Conditions: 0.25% GTA in SCM for 24 hours; OG33. The procedure:
(§1) Cell cycle profiles were visualized by propidium iodide (PI) staining as previously described (Perez-Martinez & Jaworski (2005) J Neurosci 25:4917-29). OG35, OG33 and mouse neural stem cells were grown in stem cell medium (SCM; DMEM/F12, B27, 20 ng/ml ea bFGF & EGF) while the oligodendrocyte progenitor cell line, Oli-neu (Jung et al. (1995) Eur J Neurosci 7:1245-65) was grown in Sato's medium (DMEM supplemented with 100 μg/ml apotransferrin, 5 μg/ml insulin, 60 nM triiodothyronine, 30 nM sodium selenite, 100 μM putrescine, 1% horse serum, and 25 μg/ml G418). […] after 0.25% (v/v) GTA treatment, cells were trypsinized, recovered by centrifugation, re-suspended (10^6 cells/ml) in a low-salt PI solution ([…] polyethylene glycol PEG 8000, […], 180 U/ml RNase A, 0.1% Triton X-100, and 4 mM sodium citrate), and incubated at 37° C. for 20 minutes. After addition of an equal volume of high-salt PI solution ([…] polyethylene glycol PEG 8000, […], 180 U/ml RNase A, 0.1% Triton X-100, and 400 mM NaCl) and incubation at 4° C. for 1 hour, cell cycle profiles were recorded by flow cytometry (BD LSR 11 Flow Cytometer, BD Biosciences; Franklin Lakes, N.J.).

Series [2] relates to OG35 oligodendroglioma stem cells. The description is as above. In kind it is cell-based, human. The following applies: 0.25% GTA in SCM for 24 hours; OG35. The procedure:
as §1

The subject of a further series is GBM12 GSCs. Nature of the series: Cell cycle profile of GBM-derived GSC spheres (flow cytometry). Format: cell-based, human. The following applies: 0.25% GTA in SCM for 24 hours; all GSCs except GBM8. The procedure:
as §1
(§2) Flow cytometry was performed 24 hours after GTA treatment as described in prior examples herein.
On the technique in general: A flow cytometer gives signals particle by particle.

Series [3] has as its system GBM8 GSCs. The description is as above. Format: cell-based, human. The following applies: 0.25% GTA in SCM for 24 hrs. As for the experimental part: as §1, §2
Series [4] has as its system GBM8 GSCs. Nature of the series: Growth dynamics, unbiased trypan blue exclusion based cytometry. The following applies: GTA; GBM8 cells grown in DM. Format: cell-based, human. The procedure: Growth dynamics were assessed using unbiased trypan blue exclusion based cytometry. Cells were plated (at 10,000 cells per well of a 24-well plate) directly in the absence or presence of 0.25% GTA. After 1, 3, and 5 days of treatment, cells were typsinized, collected via centrifugation, and counted according to the manufacturer's instructions (Countess Automated Cell Counter; Invitrogen Life Technologies; Carlsbad, Calif.).
Growth dynamics was determined as described in prior examples herein.

Another series has as its system ASPA in OG33 cells. Nature of the series: Western blot of ASPA expression. In kind it is cell-based, human. Conditions: 0.25% GTA. The procedure: (§3) SDS-PAGE (25 μg protein from whole cell lysates) and western blotting were performed as previously described (Lluri et al. 2008 Exp Cell Res 314:11-24). Cytosol and nuclear fractions were isolated according to standard protocols. Antibodies: rabbit anti-mouse ASPA (2,000×), (Madhavarao et al. 2004 Comp Neurol 472:318-29) rabbit anti-human ASPA (5,000×; GTX1338; GeneTex, Irvine, Calif.), goat anti-human actin (1,000×, sc-1616, Santa Cruz Biotechnology, Santa Cruz, Calif.), rabbit anti-human GAPDH (5,000×, sc-25778, Santa Cruz Biotechnology, Santa Cruz, Calif.), mouse anti-human histone H1 (250×, sc-8030; Santa Cruz Biotechnology, Santa Cruz, Calif.). Species-specific HRP—(3,000×) conjugated secondary antibodies were obtained from Jackson ImmunoResearch (West Grove, Pa.). Immunocomplexes were visualized by enhanced chemiluminescence (PerkinElmer Life Sciences; Boston, Mass.) and densitometry performed using Quantity One software (Bio-Rad; Hercules, Calif.).
(§4) SDS-PAGE (25 μg protein from whole cell lysates) and western blotting were performed as previously described in Example 1.
In general terms: Immunoblotting shows a protein as a band on a membrane.

The subject of the next series is ASPA in OG35 cells. Nature of the series: Western blot of ASPA expression. In kind it is cell-based, human. The following applies: 0.25% GTA. The procedure:
as §3, §4

For a further series, the system named is OG33 cells. Nature of the series: Immunocytochemistry after 5 days in differentiation medium with or without GTA. The following applies: 0.25% GTA, 5 days in DM. In kind it is cell-based, human. As for the experimental part: (§5) Immunocytochemistry was performed as described (Perez-Martinez & Jaworski (2005) J Neurosci 25:4917-29). Briefly, OG33 and OG35 cells were plated into differentiaion medium (DMEM, 10% FBS) in the absence or presence of 0.25% GAT and fixed with 2% paraformaldehyde after 5 days. Antibodies: rabbit anti-human ASPA (1500×; GTX13389; GeneTex, Irvine, Calif.), Rabbit anti-mouse ASPA (2,000× for western blot) (Madhavarao et al., 2004 Comp Neurol 472:318-29), rabbit anti-mouse AceCS1 (15,000× western blot; 1,500× immunocytochemistry) (Ariyannur et al. 2010 J Comp Neurol 518:2952-77), rabbit anti-mouse 2′,3′-cyclic nucleotide 3′-phosphodiesterase (CNPase; 500×sc-30158; Santa Cruz Biotechnology, Santa Cruz, Calif.). Cy3- (500×) conjugated secondary antibodies were obtained from Jackson ImmunoResearch (West Grove, Pa.). Immunocytochemistry for Histone 3/Tubulin/poly(ADP-ribose) polymerase (PARP) was performed using the PathScan Multiplex IF kit per manufacturer's instructions (Cell Signaling Technology, Danvers, Mass.).

A further series deals with OG35 cells. The description is as above. In kind it is cell-based, human. Conditions: 0.25% GTA, 5 days in DM. The procedure: as §5
For series [5] the following is noted: acetate supplementation in children with Canavan Disease; cited from earlier work.

Consider `CC(=O)OCC(COC(C)=O)OC(C)=O` [GTA, glyceryltriacetate], for which, in series [1], the Cell cycle arrest result is “induced cell cycle arrest”. The Cell cycle arrest result in series [2] was “induced cell cycle arrest”. In the series with GBM12 GSCs, the “Growth arrest (increased proportion of cells in G0/G1 and decreased proportion in S phase)” value was “exerted growth arrest”. Further, in the series on GBM8 GSCs [3], the Growth arrest entry is on record as “did not induce growth arrest”. In addition, the Growth dynamics entry with GBM8 GSCs [4] is “reduced growth dynamics”. Also, in the series on ASPA in OG33 cells, the “Expression of novel 26 kDa ASPA species (Western blot)” value is given as “induced the expression of a novel 26 kDa species” and the “Expression of the putative 36 kDa ASPA protein (Western blot)” value is on record as “no effect”. In addition, the “ASPA expression (Western blot)” value with ASPA in OG35 cells was “decreased ASPA expression”. In the series with OG33 cells, the “Apoptosis (cleaved PARP, Asp214)” value is listed as “no cleaved PARP” and the “Proliferation (phospho-histone H3 [Ser 10])” value is given as “decreased phospho-histone H3”. In the series on OG35 cells (OG35), the “Apoptosis (cleaved PARP, Asp214)” value is reported as “no cleaved PARP”; the “Nuclear expression of ASPA” value is listed as “increase the nuclear expression of ASPA”; the “Proliferation (phospho-histone H3 [Ser 10])” value is given as “decreased phospho-histone H3”. Also, the “GSC differentiation (expression of CNPase, a marker of mature oligodendrocytes)” value in the series on OG35 cells (primarily in OG35 cells) was “increased expression of CNPase”. Also, the Adverse effects result in series [5] is given as “without any adverse effects”.
